System: rabbit platelet aggregation
Assay: Test for inhibition of rabbit platelet aggregation (ADP-induced, platelet-rich plasma, method of Born)
Format: cell-based, rabbit (New Zealand White-strain)
Settings: Oryctolagus cuniculus, ADP final concentration 5 μM, 37° C., 3 minutes preincubation, maximum aggregation within 5 minutes
Procedure: Test Example [Test for inhibition of rabbit platelet aggregation]
New Zealand White-strain rabbits (groups of four rabbits each weighing 2.5-4.0 to kg) were tested. Blood was collected from the common carotid artery of the rabbits under on ether anesthesic, and mixed with 3.2to % sodium citrate in volume ratio of 9:1. The blood was centrifuged at 1,100 rpm for 15 minutes to give a platelet-rich plasma (PRP) as a supernatant.
Blood platelet aggregation was determined according to the method of Born [Nature, Vol. 194, p. 927 (1962)]. To 275 to μl of PRP was added 1 μl of a solution of various concentrations of a test compound dissolved in ethanol; the mixture was stirred at 1,000 rpm at 37° C. for 3 minutes; then, in this state, 25 μl of an aggregation-inducing agent [adenosine diphosphate (ADP), final concentration: 5 μM] was added thereto to induce platelet aggregation; and by using an aggregometer, there was determined the maximum aggregation rate (the maximum change in light transmission within 5 minutes from the induction of platelet aggregation).
The aggregatian inhibition rate of the test compound was calculated from the maximum aggregation rate in the presence test compound relative to the maximum aggregation rate when ethanol was used instead of the solution of the test compound; the IC50 value of the test compound was determined from the concentration response curve.

| IC50 [nM] | SMILES |
| --- | --- |
| 1.27 | CC(C)=CCC[C@@H](C)C[C@H](O)C#C[C@H]1[C@H](O)CC(=O)[C@@H]1CCCCOCC(=O)O [Compound 6, (17R)-20-Isopropylidene-17-methyl-13, 14-didehydro-3-oxa-PGE1] |
| 1520 | CCCCC(C)(C)C(O)C#C[C@H]1[C@H](O)CC(=O)[C@@H]1CCCCOCC(=O)OC (stereo partly drawn) [Control D, reference compound] |
| 134 | COC(=O)COCCCC[C@H]1C(=O)C[C@@H](O)[C@@H]1C#C[C@@H](O)CC1CCCCC1 [Control B, reference compound] |
| 911 | CCCCC(C)[C@H](O)C#C[C@H]1[C@H](O)CC(=O)[C@@H]1CCCCSCC(=O)O (stereo partly drawn) [Control C, reference compound] |
| 0.6 | CCCC[C@@H](C)C[C@H](O)C#C[C@H]1[C@H](O)CC(=O)[C@@H]1CCCCOCC(=O)OC [Compound 1, (17R)-17,20-Dimethyl-13,14-didehydro-3-oxa-PGE1 methyl ester] |
| 0.39 | COC(=O)CSCCCC[C@H]1C(=O)C[C@@H](O)[C@@H]1C#C[C@@H](O)C[C@@H](C)CCC=C(C)C [Compound 3, (17S)-20-Isopropylidene-17-methyl-13, 14-didehydro-3-thia-PGE1 methyl ester] |
| 0.66 | CCCC[C@@H](C)C[C@H](O)C#C[C@H]1[C@H](O)CC(=O)[C@@H]1CCCCOCC(=O)O [Compound 2, (17R)-17,20-Dimethyl-13,14-didehydro-3-oxa-PGE1] |
| 0.26 | CC(C)=CCC[C@H](C)C[C@H](O)C#C[C@H]1[C@H](O)CC(=O)[C@@H]1CCCCSCC(=O)O [Compound 4, (17S)-20-Isopropylidene-17-methyl-13,14-didehydro-3-thia-PGE1] |
| 0.67 | COC(=O)COCCCC[C@H]1C(=O)C[C@@H](O)[C@@H]1C#C[C@@H](O)C[C@H](C)CCC=C(C)C [Compound 5, (17R)-20-Isopropylidene-17-methyl-13, 14-didehydro-3-oxa-PGE1 methyl ester] |
